Consider one compound from patent US20170368089A1, “COMPOSITION FOR PREVENTING OR TREATING COLITIS” (UNIVERSITY-INDUSTRY COOPERATION GROUP OF KYUNG HEE …, priority 2012, published 2017).

One assay concerns IL-1 beta. Nature of the assay: IL-1 beta expression in colon tissue (ELISA), TNBS colitis, first experiment. It is filed as in vivo, ICR male mice. To be noted: TNBS-treated mice, 10 mg/kg orally, 3 days. The method, then: (§1) Among the experimental groups, one group was set as a normal group, and for the experimental animals in other groups, colitis was induced with 2,4,6-trinitrobenzenesulfonic acid (TNBS). In detail, after lightly anesthetizing the experimental animals with ether, 0.1 ml of the solution prepared by mixing […] of 2,4,6-Trinitrobenzene sulfonic acid (NBS) solution with 50% ethanol was injected into the colon through the anus using a syringe having 1 ml volume and oval point, respectively; and then, the syringe was vertically picked up, and then, maintained for 30 seconds to induce the inflammation. Meanwhile, 0.1 ml of normal saline solution was orally administered to the normal group. Since then, from the next day, the sample dissolved in normal saline solution was orally administered in the volume that was decided in advance one time a day for 3 days. At the next day after completing the sample administration, the experimental animals were suffocated to death with carbon dioxide, the colon from appendix to the region just before the anus was removed from the colon region.
250 μl of RIPA butter including protease inhibitor cocktail was added to 100 mg of the colon tissue of experimental animal, and then, the colon tissue was homogenized. Since then, the homogenized colon tissue was centrifuged under the conditions of 4° C. and 13000 rpm for 15 minutes to obtain supernatant. While the supernatant was stored at −80° C., the expression amounts of IL-1 beta, IL-6, and TNF-alpha were measured using a 96-well ELISA plate kits (Pierce Biotechology, Inc., Rockford, Ill., USA).
A general note: ELISA stands for enzyme-linked immunosorbent assay.

Assay [1] concerns model animal with acute colitis induced by TNBS. Nature of the assay: Acute colitis induced by TNBS in mice, appearance analysis of colon (colon length, macroscopic score), first experiment. As to conditions: Table 3 (group 2); TNBS-treated mice, 10 mg/kg orally, 3 days. It is filed as in vivo, ICR male mice. The procedure: 4-week ICR male mice (24 to 27 g) were purchased from OrientBio. All the mice were bred under the controlled environmental conditions of 50±10% of humidity and 25±2° C. of temperature, and the lighting was repeatedly on for 12 hours and off for 12 hours. A feed for a standard experiment (Samyang, Korea) was used as a feed, and water was freely taken. For all the experiments, one group was 6 mice. […] Meanwhile, 0.1 ml of normal saline solution was orally administered to the normal group. Since then, from the next day, the sample dissolved in normal saline solution was orally administered in the volume that was decided in advance one time a day for 3 days. At the next day after completing the sample administration, the experimental animals were suffocated to death with carbon dioxide, the colon from appendix to the region just before the anus was removed from the colon region. The scores about the removed colons were estimated by observing the appearances and the lengths of the colons according to the following criteria (Hollenbach, and the like, the criteria about the level of colon in 2005) as listed in Table 1. […] In addition, some of the content in the colon was collected in order to analyze the rumen microorganisms, and then, was stored in a freezer of −80° C. From the tissue of colon, the content in the colon was completely removed and then the tissue of colon was washed with normal saline solution. Since then, some of the tissue was fixed with 4% formaldehyde fixing solution in order to be used as a sample for a histopathological examination, and the rest was stored in a freezer of −80° C. for a molecular biological analysis.

Assay [2] shares this test system. Put plainly: Acute colitis induced by TNBS in mice, weight change and colon appearance (macroscopic score, colon length), third experiment. As to conditions: Table 12, TNBS-treated mice, 3 days. It is filed as in vivo, male mice (C57BL/6). The method, then: All the mice were bred under the controlled environmental conditions of 50 ±10% of humidity and 20 to 22° C. of temperature, and the lighting was repeatedly on for 12 hours and off for 12 hours. A feed for a standard experiment (Samyang, Korea) was used as a feed, and water was freely taken. For all the experiments, one group was 6 mice. […] Meanwhile, 0.1 ml of normal saline solution was orally administered to the normal group. Since then, from the next day, the sample dissolved in normal saline solution was orally administered in the volume that was decided in advance one time a day for 3 days. At the next day after completing the sample administration, the experimental animals were suffocated to death with carbon dioxide, and the colon from appendix to the region just before the anus was removed from the colon region. At this time, as a medicine sample, the experiments using the butanol-soluble fraction of the Anemarrhena asphodeloides Bunge extract, Mangiferin, and a combined extract were separately performed at a distance of time, respectively, and the effects of the medicine samples on preventing or treating colitis were reasonably analyzed based on the group supplied with normal saline solution instead of a specific medicine in the model animals with acute colitis induced by TNBS for each of the experiments. The sample administration to the model animals with colitis induced by TNBS was stopped, and at the next day, the weights of the experimental animals were measured, and then, the measured weights were compared with the initial weights to calculate the change amounts of weights. The scores about the removed colons were estimated by observing the appearances and the lengths of the colons according to the following criteria (Hollenbach, and the like, the criteria about the level of colon in 2005) as listed in Table 11. At this time, as a positive control group, the group administered with Mesalazine (Sigma) was used. In addition, some of the content in the colon was collected in order to analyze the rumen microorganisms, and then, was stored in a freezer of −80° C. […]

Another assay deals with TNF-alpha. Nature of the assay: TNF-alpha expression in colon tissue (ELISA), TNBS colitis, second experiment. It is filed as in vivo, ICR male mice. As to conditions: Table 9, extract-based samples, TNBS-treated mice, 10 mg/kg orally, 3 days. The procedure: as §1, with “At the next day after completing the sample administration, the experimental animals were suffocated to death with carbon dioxide, the colon from appendix to the region just before the anus was removed from the colon region.” left out
250 μl of RIPA butter including protease inhibitor cocktail was added to 100 mg of the colon tissue of experimental animal, and then, the colon tissue was homogenized. […] While the supernatant was stored at −80° C., the expression amounts of IL-1 beta, IL-6, and TNF-alpha were measured using a 96-well ELISA plate kits (Pierce Biotechology, Inc., Rockford, Ill., USA).

SMILES strings stand for the structures.

In the assay on IL-1 beta (Table 4 (group 1)), `Nc1ccc(O)c(C(=O)O)c1` [mesalazine, Mesalazine] showed an IL-1 beta conc. of 19.8 ± 14.4 pg/mg. In the assay with IL-1 beta (Table 5 (group 2)), this compound came in with an IL-1 beta conc. of 31.1 ± 2.9 pg/mg. This compound displayed a Colon length in assay [1] of 7.1 ± 0.46 cm. In addition, in assay [2] (10 mg/kg orally), the “Colon length (Percentage to group supplied with normal saline solution after treating TNBS)” value came out at 155% and the “Macroscopic score (Percentage to group supplied with normal saline solution after treating TNBS)” value was 61.1%. Further, the “Body weight (Percentage to group supplied with normal saline solution after treating TNBS)” value in assay [2] (one time dosage amount 10 mg/kg orally) is given as 113.5%. In the assay with TNF-alpha, the TNF-alpha conc. turned out to be 23.79 ± 2.82 pg/mg.
